In patent US9474702B2, “Cosmetic use of salicylic acid derivatives” (Avon Products, Inc., priority 2013, dated 2016):

Biological target: T1, recombinant human (rh) KLK5 protease (Homo sapiens, UniProt Q9Y337)
T1 construct: purchased R&D Systems 1108-SE
T1 sequence (Q9Y337 23-293): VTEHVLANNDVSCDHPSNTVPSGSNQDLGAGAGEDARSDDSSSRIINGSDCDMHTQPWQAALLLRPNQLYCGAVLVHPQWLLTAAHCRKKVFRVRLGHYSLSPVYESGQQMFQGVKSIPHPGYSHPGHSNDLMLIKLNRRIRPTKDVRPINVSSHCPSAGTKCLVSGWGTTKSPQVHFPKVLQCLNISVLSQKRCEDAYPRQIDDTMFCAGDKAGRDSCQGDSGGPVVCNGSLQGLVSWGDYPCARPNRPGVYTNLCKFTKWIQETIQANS
Assay: Enzymatic activity of Kallikrein 5 (KLK5), fluorogenic peptide substrate Boc-V-P-R-AMC
Assay type: biochemical
Method: The compound of Formula 1a was assayed for enzymatic activity of Kallikrein 5 (KLK5) as follows, and its activity compared to that of salicylic acid. The KLK5 activity of the compound of Formula 1a was calculated as a percentage of KLK5 activity relative to salicylic acid.
In the stratum corneum, skin's outermost layer, cell-to-cell cohesion depends primarily on proteins known as the corneodesmosomes. During skin remodeling and renewal dead cells are shed from the skin surface by the action of native proteases that break down the corneodesmosomes. […] To this end, the enzymatic activity of a member of the KLK family, recombinant human (rh) KLK5, was monitored following pre-incubation with actives and measuring the rate of peptide bond cleavage of a synthetic substrate.
Enzymatic activity of KLK5 was measured by incubating recombinant human (rh) KLK5 protease (R&D Systems, Cat No. 1108-SE) with a specific fluorogenic peptide substrate Boc-V-P-R-AMC (R&D Systems, Cat No. ES011). […] Increase in fluorescence reading indicates an increase in rhKLK5 activity. […] After 60 seconds of incubation, fluorescence was measured at 340 nm (Excitation wavelength) and 485 nm (Emission wavelength) every 1 minute for 7 minutes. Rate (kinetics) of enzyme activity was calculated as follows: Rate of enzyme activity=Change of fluorescent reading (after background correction)/Change of reaction time (min). […]

O=C(Oc1ccccc1C(=O)O)c1ccccc1O [compound of Formula 1a]
KLK5 activity as a percentage relative to salicylic acid (stimulator effect) (relative to salicylic acid, dimer tested at a concentration approximately half of that of salicylic acid, difference not significant): about 90%
KLK5 stimulation (in words) (rhKLK5 enzymatic activity): potent stimulator of KLK5
